# Measurements from patent US20220249637A1, “COMBINATION THERAPY OF A CELL-MEDIATED CYTOTOXIC THERAPY AND AN INHIBITOR OF A PROSURVIVAL BCL2 FAMILY PROTEIN” (Juno Therapeutics, Inc., priority 2019, published 2022).
# Experiments:
# [1] = system: cells of the cell therapy (CAR-T cells); experiment: Activation induced cell death of cells of the cell therapy in presence of inhibitor; type: cell-based; conditions: particularly if given at too high of a dosage
# Description: In some aspects, the provided methods, combinations and uses provide for or achieve improved or more durable responses or efficacy as compared to alternative methods, such as alternative methods involving only the administration of the immunotherapy or cell therapy but not in combination with an inhibitor of a prosurvival BCL2 family protein (e.g. venetoclax). In some embodiments, the methods are advantageous by virtue of administering an inhibitor of a prosurvival BCL2 family protein (e.g. venetoclax) shortly before (e.g. within 7 days) or concurrently with administration of an immunotherapy or a cell therapy (e.g. T cell therapy, such as CAR-T cell), thereby sensitizing the tumor and/or making the tumor less resistant to, or more susceptible to, treatment with the immunotherapy or cell therapy. […] However, delaying administration of the inhibitor of a prosurvival BCL2 family protein (e.g. venetoclax) until a time after AICD is at or has reached it peak or been reduced after having peaked can avoid detrimental effects on the cells of the cell therapy while substantially improving, e.g. synergistically increasing, T cell-mediated killing of the tumor by cells of the cell therapy (e.g. CAR-T cells).
# [2] = system: Granta-519; experiment: NucLight Red target cell killing by live cell imaging; type: cell-based
# Experimental: Anti-CD19 CAR-expressing T cell compositions were generated as described in Example 1 and were cultured with a CD19-expressing lymphoma target cell lines, either SUDHL6, WSU-DLCL2, or Granta-519 at an E:T ratio of 2.5:1. The co-cultures were carried out in the presence of 20 nM or 200 nM of the exemplary BCL2 inhibitor, venetoclax. As controls, target tumor cell lines were incubated only in the presence of the inhibitor or the anti-CD19 CAR T cells. Target cells were labeled with NucLight Red (NLR) to permit tracking of target cells by microscopy and target cell killing was monitored by the loss of fluorescent signal over time, substantially as described in Example 1.
# In a further experiment, anti-CD19 CAR-expressing T cell compositions, generated as described above, were cultured with the Granta-519 CD19-expressing lymphoma target cell line. Granta-519 cells were engineered with a lentiviral reagent to express NucLight Red (NLR) to permit tracking of target cells by microscopy. […] The anti-CD19 CAR T cells were provided in the co-cultures at the suboptimal dose, and the co-cultures were carried out in the presence of 0, 0.01, 0.1, or 1 μM of the exemplary BCL2 inhibitor venetoclax. For comparison, target tumor cell lines were incubated only in the presence of 0, 0.01, 0.1, or 1 μM of the inhibitor. Red target cell counts were enumerated by live cell imaging and tracked over time.
# [3] = system: anti-CD19 CAR T cells; experiment: CAR T cell viability, ATP luciferin reporter assay after 96 hours anti-idiotypic antibody stimulation; type: cell-based, human
# Experimental: Anti-CD19 CAR-expressing T cell compositions were generated from three human adult donors, substantially as described in Example 1. Anti-CD19 CAR T cells were stimulated for 96 hours with an anti-idiotypic antibody in the presence of an exemplary BCL2 inhibitor venetoclax solubilized in dimethylsulfoxide (DMSO). Control anti-CD19 CAR T cells were stimulated for 96 hours with the anti-idiopathic antibody in the presence of an equal amount of DMSO. Specifically, anti-CD19 CAR-expressing cells were added to the wells of a 96-well plate that had been pre-coated with an anti-idiotypic antibody specific to the scFv of the anti-CD19 CAR-expressing T cells described in Example 1 at a concentration of 30 μg/ml. The cells were cultured in the presence of 5% human serum at 37° C. and 5% CO2. After 96 hours, cells were lysed and ATP from viable cells was detected via a luciferin reporter assay and reported as relative luminescence units. Venetoclax-treated CAR T cell counts were assessed and normalized to DMSO control CAR T cell counts.
# [4] = system: RL target cells; experiment: Co-culture of tumor cells and CAR T cells, venetoclax added at initiation or 24, 48 or 72 hours later (Example 9): tumor cell killing; type: cell-based, human
# Experimental: FIGS. 14A and 14B show the number of CD3+CAR+ T cells and RL target cells, respectively, following a 6-day co-culture. Various concentrations of an exemplary BCL2 inhibitor were provided in the co-culture at its initiation, or 24, 48, or 72 hours after the initiation of co-culture.
# Thus, in some cases, the cytotoic effects of a BCL2 inhibitor, e.g. venetoclax, and a T cell therapy (e.g. CAR T cells) may be synergistic to result in cell death of cells otherwise resistant to treatment with the T cell therapy alone. In some cases, administration of the inhibitor, e.g. venetoclax, may sensitize otherwise resistant cancer cells to CAR T cell-mediated killing when it is administered within or at about 7 days after administration of the cell therapy.
# [5] = system: anti-CD19 CAR T cells; experiment: Caspase 3 expression and expansion of CAR T cells incubated with anti-ID beads and venetoclax; type: cell-based; conditions: 0.01, 0.1, 1 or 10 μM, 48 hours post-stimulation
# Experimental: Anti-CD19 CAR-expressing T cell compositions from healthy donors were incubated with anti-ID antibody-coated beads at 37° C. in the presence of increasing concentrations of venetoclax (0.01 μM, 0.1 μM, 1 μM, or 10 μM) for 48 hours. As a control, CART cells were incubated under the same conditions, but without venetoclax. Caspase 3 expression, viability, and expansion kinetics of the CAR T cells were subsequently assessed.
# [6] = system: anti-CD19 CAR T cells; experiment: Effect of serum concentration on venetoclax IC50 against CAR T cells; type: cell-based; conditions: 5%, 10% or 20% serum
# Experimental: Thus, to determine whether serum concentration may modulate the effects of venetoclax on CAR T cells, anti-CD19 CAR T cells were cultured in the presence of 5%, 10%, or 20% serum and treated with increasing concentrations of venetoclax.
smiles,measurement,setting,value
CC1(C)CCC(CN2CCN(c3ccc(C(=O)NS(=O)(=O)c4ccc(NCC5CCOCC5)c([N+](=O)[O-])c4)c(Oc4cnc5[nH]ccc5c4)c3)CC2)=C(c2ccc(Cl)cc2)C1 [venetoclax],activation induced cell death (AICD) of cells of the cell therapy,[1],can exacerbate activation induced cell death (AICD)
same,CD19-directed CAR T cell killing,"[2]; co-culture with anti-CD19 CAR T cells E:T 2.5:1, 20 or 200 nM venetoclax",enhanced
same,target cell number,"[2]; venetoclax alone, 0.01 μM",did not substantially impact target cell number
same,tumor cell killing,"[2]; venetoclax alone, 20 nM or 200 nM",did not substantially impact tumor cell killing
same,target cell number,"[2]; venetoclax alone, 0.1 μM and 1.0 μM",modest effect on target cell number
same,target cell number,"[2]; with anti-CD19 CAR T cells E:T 1:1, 0.01 μM venetoclax, compared to 0.01 μM inhibitor only",demonstrated a decrease in the number of target cells
same,target cell number / CAR T cell killing,"[2]; with anti-CD19 CAR T cells E:T 1:1, 0.1 μM and 1.0 μM venetoclax",even greater CD19-directed CAR T cell killing
same,IC50,"[3]; T-cell, average among three donors, 5% human serum",7.9 µM
same,percentage of viable anti-CD19 CAR-expressing T cells,[3]; increasing doses,decreased with increasing doses of venetoclax
same,antitumor effects of CAR T cells,"[4]; inhibitor administered when activation-induced cell death of CAR T cells has peaked (e.g. 2-7 days after CAR T cells), Example 9",potent antitumor effects
same,sensitization of tumor cells to CAR T cell-mediated killing,[4]; therapeutic dose administered 48 or 72 hours after initiation of co-culture of tumor cells and CAR T cells,able to sensitize the tumor cells to CAR T cell-mediated killing
same,percentage of CAR+ T cells expressing caspase 3,[5],larger percentages of CAR+ T cells expressing caspase 3
same,IC50 against anti-CD19 CAR T cells,[6],increase with increasing concentrations of serum
